Test results as given in patent publication US10175256B2, “Compositions and methods utilizing lysophosphatidylcholine scaffolds” (National University Of Singapore, priority 2013, dated 2019).
Where “and” joins values, the source holds several entries; their conditions need not be identical. Identical values can stand only once.

Biological target: T1, mouse Mfsd2a (Mus musculus, UniProt Q9DA75)
T1 construct: expressed in transfected cells; host or cells: HEK293
T1 sequence (Q9DA75 1-534): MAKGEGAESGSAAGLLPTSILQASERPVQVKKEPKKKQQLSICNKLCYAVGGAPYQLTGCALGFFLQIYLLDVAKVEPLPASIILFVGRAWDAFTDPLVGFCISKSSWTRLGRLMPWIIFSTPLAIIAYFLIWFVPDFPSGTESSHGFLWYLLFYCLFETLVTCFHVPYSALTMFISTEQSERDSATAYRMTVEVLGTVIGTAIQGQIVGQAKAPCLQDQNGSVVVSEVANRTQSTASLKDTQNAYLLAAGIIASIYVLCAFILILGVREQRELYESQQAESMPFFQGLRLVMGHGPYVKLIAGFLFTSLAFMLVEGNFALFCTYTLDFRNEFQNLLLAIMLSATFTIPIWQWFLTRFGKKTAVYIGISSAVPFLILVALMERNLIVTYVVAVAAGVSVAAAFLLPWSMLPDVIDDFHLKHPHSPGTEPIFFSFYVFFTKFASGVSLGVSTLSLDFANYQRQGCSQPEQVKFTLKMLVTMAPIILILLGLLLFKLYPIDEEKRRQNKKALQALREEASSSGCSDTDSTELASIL
Test: Cell-based free fatty acid transport/uptake in Mfsd2a expressing HEK293 cells (mass spectrometry, TLC; Table 1)
Settings: Mfsd2a HEK293 cells, 100 uM fatty acid/BSA overnight
In short: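 HEK293 cells expressing mouse Mfsd2a, or mock controls, were incubated overnight with 100 μM BSA-complexed fatty acids. Lipids were extracted in hexane:isopropanol (3:2) and phospholipid species quantified by HPLC-MS/MS against spiked internal standards. For TLC, cells received 100 μM [^14C]-oleate overnight, and phospholipids and neutral lipids were resolved.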

- % DHA in PC + lysoPC: 0.03823% and 0.0379% and 0.03421%
- % DHA in PE + lysoPE: 10.42% and 11.02% and 9.771%
- % DHA in PI and lysoPI: 0.01451% and 0.01192% and 0.01113%
- % DHA in PS: 0.1262% and 0.1099% and 0.1138%
Structure (SMILES): CCCCCCCCCCCCCCCC(=O)O [Palmitic acid]
- LPI16:0 in total phospholipid: 0.004365 mol percent and 0.003505 mol percent and 0.0022 mol percent
- LPI18:0 in total phospholipid: 0.02606 mol percent and 0.0265 mol percent and 0.02588 mol percent
- LPI20:4 in total phospholipid: 0.001669 mol percent and 0.001542 mol percent and 0.001553 mol percent
- LPI22:6 in total phospholipid: 0.007831 mol percent and 0.008132 mol percent and 0.006212 mol percent
- Lyso PE16:0p in total phospholipid: 2.777 mol percent and 2.934 mol percent and 3.347 mol percent
- Lyso PE18:0p in total phospholipid: 0.434 mol percent and 0.5456 mol percent and 0.7875 mol percent
- Lyso PE20:0p in total phospholipid: 0.2604 mol percent and 0.1622 mol percent and 0.3221 mol percent
- LysoPC16:0e in total phospholipid: 0.004306 mol percent and 0.004045 mol percent and 0.00338 mol percent
- LysoPC16:0 in total phospholipid: 0.02231 mol percent and 0.02238 mol percent and 0.01839 mol percent
- LysoPC16:1 in total phospholipid: 0.006002 mol percent and 0.005731 mol percent and 0.005746 mol percent
- LysoPC18:0e in total phospholipid: 0.002349 mol percent and 0.002697 mol percent and 0.00142 mol percent
- LysoPC18:0 in total phospholipid: 0.005806 mol percent and 0.006675 mol percent and 0.006016 mol percent
- LysoPC18:1 in total phospholipid: 0.01311 mol percent and 0.01254 mol percent and 0.01251 mol percent
- LysoPC18:2 in total phospholipid: 0.001631 mol percent and 0.001146 mol percent and 0.001487 mol percent
- LysoPC20:4 in total phospholipid: 0.000587 mol percent and 0.000539 mol percent and 0.000608 mol percent
- LysoPC22:6 in total phospholipid: 0.000652 mol percent and 0.000809 mol percent and 0.000879 mol percent
- LysoPE16:1 in total phospholipid: 0.1736 mol percent and 0.1327 mol percent and 0.1253 mol percent
- LysoPE18:0 in total phospholipid: 0.1042 mol percent and 0.08847 mol percent and 0.1611 mol percent
- LysoPE18:1 in total phospholipid: 0.1215 mol percent and 0.07373 mol percent and 0.07159 mol percent
- PC32:0e in total phospholipid: 1.809 mol percent and 1.851 mol percent and 1.702 mol percent
- PC32:0 in total phospholipid: 2.456 mol percent and 2.444 mol percent and 2.298 mol percent
- PC32:1e in total phospholipid: 2.403 mol percent and 2.512 mol percent and 2.3 mol percent
- PC32:1 in total phospholipid: 9.104 mol percent and 9.244 mol percent and 8.731 mol percent
- PC32:2 in total phospholipid: 1.488 mol percent and 1.519 mol percent and 1.412 mol percent
- PC34:1e in total phospholipid: 4.813 mol percent and 4.891 mol percent and 4.611 mol percent
- PC34:1 in total phospholipid: 18.56 mol percent and 18.94 mol percent and 17.94 mol percent
- PC34:2e in total phospholipid: 1.486 mol percent and 1.537 mol percent and 1.423 mol percent
- PC34:2 in total phospholipid: 6.06 mol percent and 6.22 mol percent and 5.829 mol percent
- PC34:3e in total phospholipid: 0.2283 mol percent and 0.2319 mol percent and 0.2175 mol percent
- PC34:3 in total phospholipid: 0.615 mol percent and 0.6295 mol percent and 0.5976 mol percent
- PC36:1e in total phospholipid: 1.432 mol percent and 1.425 mol percent and 1.342 mol percent
- PC36:1 in total phospholipid: 2.54 mol percent and 2.547 mol percent and 2.409 mol percent
- PC36:2e in total phospholipid: 1.609 mol percent and 1.633 mol percent and 1.504 mol percent
- PC36:2 in total phospholipid: 5.692 mol percent and 5.815 mol percent and 5.439 mol percent
- PC36:3e in total phospholipid: 0.8012 mol percent and 0.8224 mol percent and 0.7603 mol percent
- PC36:3 in total phospholipid: 1.149 mol percent and 1.165 mol percent and 1.071 mol percent
- PC36:4e in total phospholipid: 0.4287 mol percent and 0.4448 mol percent and 0.4173 mol percent
- PC36:4 in total phospholipid: 0.3268 mol percent and 0.3193 mol percent and 0.308 mol percent
- PC36:5e in total phospholipid: 0.3253 mol percent and 0.3343 mol percent and 0.309 mol percent
- PC36:5 in total phospholipid: 0.05232 mol percent and 0.05663 mol percent and 0.05164 mol percent
- PC36:6 in total phospholipid: 0.05108 mol percent and 0.04821 mol percent and 0.04326 mol percent
- PC38:1e in total phospholipid: 0.3517 mol percent and 0.3555 mol percent and 0.3378 mol percent
- PC38:3e in total phospholipid: 0.4164 mol percent and 0.4068 mol percent and 0.3798 mol percent
- PC38:3 in total phospholipid: 0.5146 mol percent and 0.5317 mol percent and 0.5066 mol percent
- PC38:4e in total phospholipid: 0.4168 mol percent and 0.4143 mol percent and 0.3843 mol percent
- PC38:4 in total phospholipid: 0.4407 mol percent and 0.4455 mol percent and 0.4228 mol percent
- PC38:5e in total phospholipid: 0.3513 mol percent and 0.3625 mol percent and 0.3264 mol percent
- PC38:5 in total phospholipid: 0.2268 mol percent and 0.2451 mol percent and 0.2273 mol percent
- PC38:6 in total phospholipid: 0.1683 mol percent and 0.1727 mol percent and 0.1591 mol percent
- PC38:7 in total phospholipid: 0.1176 mol percent and 0.1195 mol percent and 0.1136 mol percent
- PC40:1e in total phospholipid: 0.1793 mol percent and 0.1879 mol percent and 0.168 mol percent
- PC40:2e in total phospholipid: 0.1944 mol percent and 0.1992 mol percent and 0.1788 mol percent
- PC40:3e in total phospholipid: 0.1397 mol percent and 0.1434 mol percent and 0.1332 mol percent
- PC40:4e in total phospholipid: 0.1237 mol percent and 0.1272 mol percent and 0.1205 mol percent
- PC40:5e in total phospholipid: 0.1172 mol percent and 0.1169 mol percent and 0.1115 mol percent
- PC40:5 in total phospholipid: 0.08233 mol percent and 0.08765 mol percent and 0.07997 mol percent
- PC40:6 in total phospholipid: 0.1131 mol percent and 0.1203 mol percent and 0.105 mol percent
- PC40:7 in total phospholipid: 0.1694 mol percent and 0.1653 mol percent and 0.1619 mol percent
- PE32:1 in total phospholipid: 0.4397 mol percent and 0.3146 mol percent and 0.3699 mol percent
- PE32:2 in total phospholipid: 0.09258 mol percent and 0.118 mol percent and 0.1193 mol percent
- PE34:1 in total phospholipid: 1.562 mol percent and 1.425 mol percent and 1.336 mol percent
- PE34:2 in total phospholipid: 1.088 mol percent and 0.9634 mol percent and 1.014 mol percent
- PE34p:1 in total phospholipid: 1.042 mol percent and 1.072 mol percent and 1.479 mol percent
